These results are taken from US7273880B2, “Selective NPY (Y5) antagonists” (H. Lunbeck A/S, priority 1999, dated 2007).

SMILES strings stand for the structures. Where a name gives a salt, the structure may show the parent alone.

Data set [1] addresses T1, human Y5 receptor (hNPY-5) (Homo sapiens, UniProt Q15761).
T1 construct: expressed in transfected cells; host or cells: mouse fibroblast LM(tk-) cells, e.g. L-hY5-7 (ATCC CRL-11995)
T1 sequence (Q15761 1-445): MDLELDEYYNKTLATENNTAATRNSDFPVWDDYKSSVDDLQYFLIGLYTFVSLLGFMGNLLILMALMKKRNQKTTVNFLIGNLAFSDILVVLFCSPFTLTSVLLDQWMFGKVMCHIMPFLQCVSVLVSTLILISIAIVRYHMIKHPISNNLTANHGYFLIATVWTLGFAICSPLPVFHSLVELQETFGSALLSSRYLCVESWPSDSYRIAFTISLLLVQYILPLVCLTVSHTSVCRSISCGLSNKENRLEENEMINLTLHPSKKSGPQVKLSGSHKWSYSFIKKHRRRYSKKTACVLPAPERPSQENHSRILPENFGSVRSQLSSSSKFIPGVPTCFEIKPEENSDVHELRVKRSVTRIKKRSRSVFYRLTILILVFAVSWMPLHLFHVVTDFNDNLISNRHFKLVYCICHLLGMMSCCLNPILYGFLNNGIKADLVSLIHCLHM
As to the kind of experiment: Radioligand binding to membranes, cloned human Y5 receptor. The following applies: cloned human NPY Y5 receptor, radioligand competition binding; Tables 1-3; read-out: Ki, nM hNPY-5. As for the experimental part:
Binding of the compounds of the present invention to human Y1, Y2, Y4, and Y5 receptors was evaluated using stably transfected 293 or LM(tk-) cells as described above. Stably transfected cell lines which may be used for binding assays include, for example, for the human Y1 receptor, 293-hY1-5 (deposited Jun. 4, 1996, under ATCC Accession No. CRL-12121), for the human Y2 receptor, 293-hY2-10 (deposited Jan. 27, 1994, under ATCC Accession No. CRL-11537), for the human Y4 receptor, L-hY4-3 (deposited Jan. 11, 1995, under ATCC Accession No. CRL-11779), and for human Y5 receptor, L-hY5-7 (deposited Nov. 15, 1995, under ATCC Accession No. CRL-11995). These cell lines were deposited with the American Type Culture Collection (ATCC), 10801 University Blvd., Manassas, Va. 20110-2209, U.S.A. under the provisions of the Budapest Treaty for the International Recognition of the Deposit of Microorganisms for the Purposes of Patent Procedure.
Membranes were harvested from COS-7 cells 48 hours after transient transfection. Adherent cells were washed twice in ice-cold phosphate buffered saline (138 mM NaCl, 8.1 mM Na2HPO4, 2.5 mM KCl, 1.2 mM KH2PO4, 0.9 mM CaCl2, 0.5 mM MgCl2, pH 7.4) and lysed by sonication in ice-cold sonication buffer (20 mM Tris-HCl, 5 mM EDTA, pH 7.7). Large particles and debris were cleared by low speed centrifugation (200×g, 5 min, 4° C.). Membranes were collected from the supernatant fraction by centrifugation (32,000×g, 18 min, 4° C.), washed with ice-cold hypotonic buffer, and collected again by centrifugation (32,000×g, 18 min, 4° C.). The final membrane pellet was resuspended by sonication into a small volume of ice-cold binding buffer (˜1 ml for every 5 plates: 10 mM NaCl, 20 mM HEPES, 0.22 mM KH2PO4, 1.26 mM CaCl2, 0.81 mM MgSO4, pH 7.4). Protein concentration was measured by the Bradford method (Bradford, 1976) using Bio-Rad Reagent, with bovine serum albumin as a standard. Membranes were held on ice for up to one hour and used fresh, or flash-frozen and stored in liquid nitrogen.
Membranes were prepared similarly from 293, LM(tk-), and NIH-3T3 cells. To prepare membranes from baculovirus infected cells, 2×10^7 Sf21 cells were grown in 150 mm tissue culture dishes and infected with a high-titer stock of hY5BB3. Cells were incubated for 2-4 days at 27° C., no CO2 before harvesting and membrane preparation as described above.
Membrane suspensions were diluted in binding buffer supplemented with 0.1% bovine serum albumin to yield an optimal membrane protein concentration so that ^125I-PYY (or alternative radioligand such as ^125I-NPY, ^125I-PYY3-36, or ^125I-[Leu^31Pro^34]PYY) bound by membranes in the assay was less than 10% of ^125I-PYY (or alternative radioligand) delivered to the sample (100,000 dpm/sample=0.08 nM for competition binding assays). ^125I-PYY (or alternative radioligand) and peptide competitors were also diluted to desired concentrations in supplemented binding buffer. Individual samples were then prepared in 96-well polypropylene microtiter plates by mixing 125I-PYY (25 μL) (or alternative radioligand), competing peptides or supplemented binding buffer (25 μL), and finally, membrane suspensions (200 μL). Samples were incubated in a 30° C. water bath with constant shaking for 120 min. Incubations were terminated by filtration over Whatman GF/C filters (pre-coated with 1% polyethyleneimine and air-dried before use), followed by washing with 5 mL of ice-cold binding buffer. Filter-trapped membranes were impregnated with MeltiLex solid scintillant (Wallac, Turku, Finland) and counted for ^125I in a Wallac Beta-Plate Reader. Alternatively, incubations were carried out in GF/C filter plates (pre-coated with 1% polyethyleneimine and air-dried before use), followed by vacuum filtration and three washes of 300 μL of ice-cold binding buffer. 50 μL of UltimaGold (Packard) scintillant were added and counted for ^125I in a Wallac MicroBeta Trilux. […]

With `O=C1OCCN1C[C@H]1CC[C@H](Nc2nc3c(s2)CCCc2ccc(F)cc2-3)CC1` (as salt: HCl) [Example 79, 3-({4-[(9-fluoro-5,6-dihydro-4H-benzo[6,7]cyclohepta-[d][1,3]thiazol-2-yl)amino]cyclohexyl}methyl)-1,3-oxazolan-2-one], the melting point (in general, the temperature, or range, at which the solid turns liquid) lay in the range of 223 to 225 °C.
Still for that read-out and setting: to `CCOC(=O)N[C@H]1CC[C@H](CNc2nc3c(s2)CCCc2ccc(F)cc2-3)CC1` (as salt: hydrochloride) [Example 68, trans-N2-(4-Ethoxycarbonylamino)cyclohexylmethyl-9-fluoro-5,6-dihydro-4H-benzo[6,7]cyclohepta[d][1,3]-thiazol-2-amine hydrochloride] belongs 94 to 97 °C; to `O=S(=O)(NC[C@H]1CC[C@H](Nc2nc3c(s2)CCCc2ccc(F)cc2-3)CC1)c1cccnc1` (as salt: salt) [Example 59, trans-1-Aza-9-fluoro-4,5-dihydro-2-(4-(3-pyridyl)-sulfonylaminomethyl)cyclohexylamino-3-thia-benzo[e]-azulene], 127 to 129 °C; to `COc1ccc(C)cc1S(=O)(=O)NC[C@H]1CC[C@H](Nc2nc3c(s2)CCOc2ccccc2-3)CC1` (as salt: HCl) [Example 48, trans-1-Aza-4,5-dihydro-2-{4-(2-methoxy-5-methyl)phenyl-sulfonylaminomethyl}cyclohexylamino-6-oxa-3-thia-benzo[e]azulene], 100 to 105 °C (dec.).
The same measure, in the same setting: to `O=S(=O)(NCCCCNc1nc2c(s1)CCCc1ccc(F)cc1-2)c1cccnc1` (as salt: salt) [Example 56, 1-Aza-9-fluoro-4,5-dihydro-2-(4-(3-pyridyl)sulfonyl-amino)butylamino-3-thia-benzo[e]azulene] belongs 101 to 103 °C; to `COc1ccc2c(c1)-c1nc(NC[C@H]3CC[C@H](NS(C)(=O)=O)CC3)sc1CCO2` (as salt: HCl) [Example 63, trans-1-Aza-4,5-dihydro-9-methoxy-2-{4-methylsulfonyl-amino}cyclohexylmethylamino-6-oxa-3-thia-benzo[e]azulene], 200 to 215 °C; to `COc1cccc2c1OCCc1sc(NC[C@H]3CC[C@H](NS(C)(=O)=O)CC3)nc1-2` (as salt: hydrochloride) [Example 65, trans-N2-(4-Methylsulfonylamino)cyclohexylmethyl-7-methoxy-4,5-dihydro-benzo[2,3]oxepino[4,5-d][1,3]-thiazol-2-amine hydrochloride], 225 to 230 °C.
Same read-out and setting: to `O=S(=O)(N[C@H]1CC[C@H](Nc2nc3c(s2)CCCc2ccc(F)cc2-3)CC1)c1cccnc1` (as salt: salt) [Example 54, trans-1-Aza-9-fluoro-4,5-dihydro-2-(4-(3-pyridyl-sulfonylamino)cyclohexyl)amino-3-thia-benzo[e]azulene] belongs 165 to 167 °C; to `CS(=O)(=O)NCC1CCC(Nc2nc3c(s2)COc2ccccc2-3)CC1` (stereo not shown) (as salt: salt) [Example 70, 2-(4-Methylsulfonylaminomethyl)cyclohexylamino-4H-chromeno[4,3-d]thiazole], 140 to 144 °C.
As for `COCC(=O)NC[C@H]1CC[C@H](Nc2nc3c(s2)CCCc2ccc(F)cc2-3)CC1` (as salt: HCl) [Example 80, N1-({4-[(9-fluoro-5,6-dihydro-4H-benzo[6,7]-cyclohepta-[d][1,3]thiazol-2-yl)amino]cyclohexyl}-methyl)-2-methoxyacetamide], the melting point lay in the range of 63 to 65 °C.
Still for that read-out and setting: with `O=S(=O)(CC(F)(F)F)NCCCCNc1nc2c(s1)CCCc1ccc(F)cc1-2` (as salt: TFA) [Example 39, 1-Aza-9-fluoro-4,5-dihydro-2-(4-(2,2,2-trifluoroethyl)-sulfonylamino)butylamino-3-thia-benzo[e]azulene] the figure was 140 to 141 °C.
The same measure, in the same setting: to `CCN(C=O)[C@H]1CC[C@H](CNc2nc3c(s2)CCOc2ccccc2-3)CC1` (as salt: HCl) [Example 87, trans-1-Aza-2-(4-(n-(ethyl) formamido)cyclohexyl)methyl-amino-4,5-dihydro-6-oxa-3-thia-benzo[e]azulene] belongs 210 to 213 °C; to `CCCN(C=O)[C@H]1CC[C@H](CNc2nc3c(s2)CCOc2ccccc2-3)CC1` (as salt: HCl) [Example 88, N-{4-[(4,5-Dihydrobenzo[2,3]oxepino[4,5-d][1,3]-thiazol-2-ylamino)methyl]cyclohexyl}-N-propyl-formamide], 195 to 197 °C.
Same read-out and setting: to `COc1ccc2c(c1)CCCc1sc(NC[C@H]3CC[C@H](NS(C)(=O)=O)CC3)nc1-2` (as salt: salt) [Example 71, trans-1-Aza-4,5-dihydro-8-methoxy-2-(4-methylsulfonyl-amino)cyclohexylmethylamino-3-thia-benzo[e]azulene] belongs 94 to 97 °C; to `O=S(=O)(NCCCCCNc1nc2c(s1)CCCc1ccc(F)cc1-2)c1ccccc1F` (as salt: HCl) [Example 3, 1-Aza-9-fluoro-2-(5-(2-fluorophenyl)sulfonylamino)-pentylamino-4,5-dihydro-3-thia-benzo[e]azulene], 55 to 57 °C.
`COc1cccc2c1OCCc1sc(NC[C@H]3CC[C@H](NS(=O)(=O)N(C)C)CC3)nc1-2` (as salt: HCl) [Example 66, trans-1-Aza-4,5-dihydro-7-methoxy-2-{4-dimethylamino-sulfonylamino}cyclohexylmethylamino-6-oxa-3-thia-benzo[e]azulene] returned a melting point of 206 to 208 °C.
On the same count and under the same terms, with `COCC(=O)N[C@H]1CC[C@H](CNc2nc3c(s2)CCOc2ccccc2-3)CC1` (as salt: HCl) [Example 84, N1-{4-[(4,5-dihydrobenzo[2,3]oxepino[4,5-d][1,3]thiazol-2-ylamino)methyl]cyclohexyl}-2-methoxyacetamide] the figure was 234 to 237 °C; with `COCC(=O)NCc1ccc(Nc2nc3c(s2)CCCc2ccc(F)cc2-3)cc1` (as salt: HCl) [Example 89, N1-{4-[(9-fluoro-5,6-dihydro-4H-benzo[6,7]cyclohepta-[d][1,3]thiazol-2-yl)amino]benzyl}-2-methoxyacetamide], 175 to 178 °C.
As to `COc1ccc2c(c1)-c1nc(NC[C@H]3CC[C@H](NS(C)(=O)=O)CC3)sc1CCO2` [Example 63, trans-1-Aza-4,5-dihydro-9-methoxy-2-{4-methylsulfonyl-amino}cyclohexylmethylamino-6-oxa-3-thia-benzo[e]azulene], the Ki (as a rule, the equilibrium dissociation constant of an inhibitor or competing ligand from its target) in data set [1] turned out to be 31 nM.
